Results taken from ChEMBL document CHEMBL1201862, “PubChem BioAssay data set” (2004).
Values belong to the compound of their own block, whether it stands above or below them. The source made the active and inactive calls.

How the values were obtained:
[1] = blockers of HIV-1 envelope-mediated cell-cell fusion – cherry-pick, dose response (AID 652057); type: functional, cell-based
[2] = blockers of HIV-1 ZM109 envelope-driven cell-cell fusion – HeLa effector, CEM target cells, luciferase, cherry-pick, dose response (AID 652058); type: functional, cell-based;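 note: luciferase signal from HIV-1 Env mediated cell-cell fusion of effector and target cells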
[3] = off-target signal loss in HeLa-CEM21 co-culture – HeLa F-luc CTL cells, cherry-picked, counter-screen for HIV-1 Env fusion inhibitor project, dose response (AID 652040); type: functional, cell-based;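 note: potency for signal decrease marking cytotoxic or nonspecific inhibition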
[4] = HIV-1 AD8 envelope cell-cell fusion blockers – cherry-pick, dose response (AID 652062); type: functional, cell-based;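 note: luciferase signal from cell-cell fusion driven by HIV-1 clade B AD8 Env; potency is for inhibitors of fusion seen as a drop in luminescence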
[5] = test system: INS1; assay: INS-1E survival protection against cytokine death – cell-based, luminescence, retest, dose response (AID 449756); type: functional; settings: Rattus norvegicus;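 note: cell death triggered by IL-1 beta plus TNF-alpha plus IFN-gamma mixture; protective hits raise ATP signal compared with cytokine alone wells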
[6] = molecular target: T1, Histone-lysine N-methyltransferase NSD2 (Homo sapiens, UniProt O96028); type: biochemical
T1 sequence (O96028 whole entry): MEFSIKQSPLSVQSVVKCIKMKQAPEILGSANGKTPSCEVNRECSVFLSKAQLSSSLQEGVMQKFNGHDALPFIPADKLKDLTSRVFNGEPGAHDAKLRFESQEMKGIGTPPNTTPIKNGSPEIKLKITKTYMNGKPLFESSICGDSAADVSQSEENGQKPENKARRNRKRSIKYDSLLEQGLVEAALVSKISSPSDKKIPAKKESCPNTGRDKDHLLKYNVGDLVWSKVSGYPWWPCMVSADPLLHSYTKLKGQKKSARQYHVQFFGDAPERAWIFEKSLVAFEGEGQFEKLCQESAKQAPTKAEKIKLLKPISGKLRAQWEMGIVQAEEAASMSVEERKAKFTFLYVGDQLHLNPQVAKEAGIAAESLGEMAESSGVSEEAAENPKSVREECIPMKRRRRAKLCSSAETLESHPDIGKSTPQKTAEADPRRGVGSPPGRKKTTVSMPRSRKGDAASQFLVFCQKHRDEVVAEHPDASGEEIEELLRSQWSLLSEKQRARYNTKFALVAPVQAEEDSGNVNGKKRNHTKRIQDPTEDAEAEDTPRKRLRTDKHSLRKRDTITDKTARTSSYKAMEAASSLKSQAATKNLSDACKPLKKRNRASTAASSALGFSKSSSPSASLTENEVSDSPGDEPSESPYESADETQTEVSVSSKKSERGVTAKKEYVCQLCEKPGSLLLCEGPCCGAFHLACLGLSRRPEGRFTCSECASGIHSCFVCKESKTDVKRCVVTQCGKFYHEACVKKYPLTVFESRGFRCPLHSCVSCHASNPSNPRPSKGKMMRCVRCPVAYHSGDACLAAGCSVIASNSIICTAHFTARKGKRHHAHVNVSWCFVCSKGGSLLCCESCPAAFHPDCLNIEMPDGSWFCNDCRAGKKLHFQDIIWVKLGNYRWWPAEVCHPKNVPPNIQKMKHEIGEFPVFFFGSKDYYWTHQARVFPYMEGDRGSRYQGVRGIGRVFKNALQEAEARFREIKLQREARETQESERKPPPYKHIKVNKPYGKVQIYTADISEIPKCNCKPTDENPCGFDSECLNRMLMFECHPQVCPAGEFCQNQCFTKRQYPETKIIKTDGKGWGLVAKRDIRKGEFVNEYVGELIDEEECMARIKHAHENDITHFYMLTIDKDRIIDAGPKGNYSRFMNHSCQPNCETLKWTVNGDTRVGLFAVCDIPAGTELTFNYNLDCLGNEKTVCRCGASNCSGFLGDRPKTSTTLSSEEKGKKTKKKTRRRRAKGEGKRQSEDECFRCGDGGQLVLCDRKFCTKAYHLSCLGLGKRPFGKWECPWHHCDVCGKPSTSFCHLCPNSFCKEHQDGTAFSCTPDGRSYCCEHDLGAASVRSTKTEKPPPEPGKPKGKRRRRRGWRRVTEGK

[7] = molecular target: Induced myeloid leukemia cell differentiation protein Mcl-1 (Homo sapiens, UniProt Q07820); type: functional
Chain of Induced myeloid leukemia cell differentiation protein Mcl-1 (Q07820 whole entry): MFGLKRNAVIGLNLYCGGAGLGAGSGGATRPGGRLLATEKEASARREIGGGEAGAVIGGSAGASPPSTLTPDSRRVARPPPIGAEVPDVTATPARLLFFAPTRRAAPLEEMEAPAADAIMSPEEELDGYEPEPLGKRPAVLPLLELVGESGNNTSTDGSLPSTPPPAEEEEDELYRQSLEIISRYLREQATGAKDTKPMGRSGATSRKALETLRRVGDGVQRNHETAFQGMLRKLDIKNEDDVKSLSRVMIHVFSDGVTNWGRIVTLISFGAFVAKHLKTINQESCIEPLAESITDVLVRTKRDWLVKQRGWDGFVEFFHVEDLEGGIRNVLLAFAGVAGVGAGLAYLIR

[8] = molecular target: T2, Heat shock factor protein 1 (Mus musculus, UniProt P38532); assay: enhancement of HSF1-driven luciferase signal – cell-based, NIH3T3, luminescence, dose retest, confirmation (AID 435004); type: functional;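 note: stress induced by proteasome inhibitor MG132 added 30 min after compound; luciferase reporter driven by HSF1 response element in NIH3T3 cells; actives raise luminescence as potentiators of the MG132 stress response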
T2 sequence (P38532 whole entry): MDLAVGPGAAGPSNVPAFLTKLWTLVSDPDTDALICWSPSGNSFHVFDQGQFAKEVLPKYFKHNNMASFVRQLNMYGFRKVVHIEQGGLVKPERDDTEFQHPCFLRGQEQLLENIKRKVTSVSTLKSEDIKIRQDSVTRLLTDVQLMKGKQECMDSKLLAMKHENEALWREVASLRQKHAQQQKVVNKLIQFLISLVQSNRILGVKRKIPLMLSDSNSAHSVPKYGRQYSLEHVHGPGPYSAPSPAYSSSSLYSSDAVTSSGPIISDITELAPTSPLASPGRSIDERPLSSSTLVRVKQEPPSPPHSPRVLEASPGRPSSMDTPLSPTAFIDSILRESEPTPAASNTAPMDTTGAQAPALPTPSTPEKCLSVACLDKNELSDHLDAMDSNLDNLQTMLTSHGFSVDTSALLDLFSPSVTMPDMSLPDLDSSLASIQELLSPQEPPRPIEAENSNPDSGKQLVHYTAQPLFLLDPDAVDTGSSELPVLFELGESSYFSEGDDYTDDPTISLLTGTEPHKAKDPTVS

[9] = molecular target: Cytochrome P450 3A4 (Homo sapiens, UniProt P08684);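 note: CYP3A4 tested as one member of a cytochrome P450 panel screen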
Chain of Cytochrome P450 3A4 (P08684 whole entry): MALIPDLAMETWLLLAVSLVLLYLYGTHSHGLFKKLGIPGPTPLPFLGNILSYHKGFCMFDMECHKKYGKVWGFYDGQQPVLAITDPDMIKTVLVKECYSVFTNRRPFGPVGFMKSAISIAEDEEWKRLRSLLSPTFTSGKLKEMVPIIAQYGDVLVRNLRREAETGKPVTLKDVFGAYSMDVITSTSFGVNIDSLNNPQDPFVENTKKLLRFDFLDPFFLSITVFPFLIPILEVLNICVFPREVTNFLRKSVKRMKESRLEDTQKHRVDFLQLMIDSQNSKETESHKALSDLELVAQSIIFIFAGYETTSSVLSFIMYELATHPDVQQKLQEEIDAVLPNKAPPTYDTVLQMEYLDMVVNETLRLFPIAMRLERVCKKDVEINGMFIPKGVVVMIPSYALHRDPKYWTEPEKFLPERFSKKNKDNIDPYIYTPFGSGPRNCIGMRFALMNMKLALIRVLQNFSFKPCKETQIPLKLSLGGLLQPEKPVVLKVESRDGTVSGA

[10] = molecular target: Cytochrome P450 2C9 (Homo sapiens, UniProt P11712)
Chain of Cytochrome P450 2C9 (P11712 whole entry): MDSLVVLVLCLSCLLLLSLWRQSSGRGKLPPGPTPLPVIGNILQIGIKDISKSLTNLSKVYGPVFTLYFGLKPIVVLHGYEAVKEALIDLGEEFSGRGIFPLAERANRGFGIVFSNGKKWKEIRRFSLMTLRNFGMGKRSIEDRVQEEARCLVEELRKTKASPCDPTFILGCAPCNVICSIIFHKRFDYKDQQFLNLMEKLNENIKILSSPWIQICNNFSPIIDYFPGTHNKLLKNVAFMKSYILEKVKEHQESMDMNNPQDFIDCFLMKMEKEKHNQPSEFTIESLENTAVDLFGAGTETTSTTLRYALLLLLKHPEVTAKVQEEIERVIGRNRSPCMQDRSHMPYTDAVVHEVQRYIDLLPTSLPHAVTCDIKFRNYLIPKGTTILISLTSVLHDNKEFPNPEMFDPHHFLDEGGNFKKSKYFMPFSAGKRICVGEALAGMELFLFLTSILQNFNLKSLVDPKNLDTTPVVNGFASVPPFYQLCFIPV

[11] = molecular target: T3, Galanin receptor type 3 (Homo sapiens, UniProt O60755); assay: Fluorescence-based cell-based primary high throughput dose response assay to identify antagonists of the Galanin Receptor 3 (GalR3).; type: functional
T3 sequence (O60755 whole entry): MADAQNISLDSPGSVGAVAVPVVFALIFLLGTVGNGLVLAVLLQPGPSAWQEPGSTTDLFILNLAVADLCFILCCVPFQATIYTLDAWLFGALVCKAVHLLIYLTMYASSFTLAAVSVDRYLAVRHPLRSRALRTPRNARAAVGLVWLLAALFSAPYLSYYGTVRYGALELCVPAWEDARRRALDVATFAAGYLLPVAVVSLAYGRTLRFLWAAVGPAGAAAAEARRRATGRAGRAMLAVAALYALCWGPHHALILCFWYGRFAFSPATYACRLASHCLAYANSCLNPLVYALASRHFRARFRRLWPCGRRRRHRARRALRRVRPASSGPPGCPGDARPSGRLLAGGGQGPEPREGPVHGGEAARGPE

[12] = cells; type: functional, cell-based; settings: HEK-CNG
[13] = molecular target: Genome polyprotein (dengue virus type 2, UniProt P29990); assay: flavivirus cap methylation enzyme inhibition – biochemical, confirmation dose response, primary screen (AID 588689); type: functional
Chain of Genome polyprotein (P29990 2492-3391 limits assumed): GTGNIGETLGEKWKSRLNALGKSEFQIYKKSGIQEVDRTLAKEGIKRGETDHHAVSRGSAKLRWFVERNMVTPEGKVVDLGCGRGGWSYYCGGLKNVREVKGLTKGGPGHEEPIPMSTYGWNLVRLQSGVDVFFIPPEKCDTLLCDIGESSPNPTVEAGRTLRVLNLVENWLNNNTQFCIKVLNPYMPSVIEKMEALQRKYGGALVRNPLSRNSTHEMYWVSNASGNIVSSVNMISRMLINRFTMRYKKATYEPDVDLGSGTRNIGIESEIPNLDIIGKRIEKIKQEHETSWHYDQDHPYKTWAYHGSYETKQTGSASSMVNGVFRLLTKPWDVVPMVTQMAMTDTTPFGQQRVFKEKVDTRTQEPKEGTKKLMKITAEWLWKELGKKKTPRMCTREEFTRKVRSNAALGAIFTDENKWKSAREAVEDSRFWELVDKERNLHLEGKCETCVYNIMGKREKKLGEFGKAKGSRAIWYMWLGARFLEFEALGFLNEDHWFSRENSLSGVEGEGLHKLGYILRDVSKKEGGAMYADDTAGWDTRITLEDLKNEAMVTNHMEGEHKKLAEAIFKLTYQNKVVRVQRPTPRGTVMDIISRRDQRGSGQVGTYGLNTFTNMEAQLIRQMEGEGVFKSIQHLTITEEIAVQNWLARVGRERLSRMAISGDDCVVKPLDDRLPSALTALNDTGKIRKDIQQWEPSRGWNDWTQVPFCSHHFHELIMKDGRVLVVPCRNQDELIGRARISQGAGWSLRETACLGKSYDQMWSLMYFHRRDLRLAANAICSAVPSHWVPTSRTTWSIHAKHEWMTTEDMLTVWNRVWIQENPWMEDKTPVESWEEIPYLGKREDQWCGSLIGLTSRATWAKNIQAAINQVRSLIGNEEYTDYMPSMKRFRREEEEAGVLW

[14] = test system: H9c2; assay: cells; type: functional, cell-based; settings: Rattus norvegicus, H9c2, Myocardium;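 note: confirmatory concentration-response retest of ultra-high-throughput screening hits for modulation of myocardial damage; cell death induced by hydrogen peroxide oxidative stress; compound pretreatment for 60 min then peroxide exposure for 2 h; potency is for protecting the cells against peroxide damage rather than for killing them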

SMILES: N#Cc1ccc(C(c2nnnn2CCc2ccccc2)N2CCCCCC2)cc1 (stereo unspecified)
AC50 [1]: 4.92 µM (active)
AC50 [2]: 12.1 µM (active)
AC50 [3]: 20.2 µM (active)
AC50 [4]: 10.2 µM (active)

SMILES: Cc1ccc(O)c(CNc2cccc3cccnc23)c1
AC50 [5]: 13.2 µM (active)
AC50 [6]: > 20 µM (inactive)

IC50 [7]: 6.18 µM (not active)
SMILES: COc1ccc(NC(=O)Cc2c(SC)c3ccccc3n2Cc2ccccc2)cc1

EC50 [8]: > 260 µM (inactive)
AC50 [9]: 35.5 µM (inconclusive)
AC50 [10]: inconclusive
SMILES: O=C(CCCn1c(=S)[nH]c2ccc(Br)cc2c1=O)NCC1CCCO1 (stereo unspecified)

IC50 [7]: 8.77 µM (not active)
SMILES: CC(C(=O)NC1CCCC1)N(Cc1ccco1)C(=O)c1snc(C(=O)NC2CCCC2)c1N (stereo unspecified)

SMILES: CN1CCN(c2ccc(CNS(=O)(=O)Cc3cccc(C(F)(F)F)c3)cc2)CC1
AC50 [5]: 4.36 µM (active)
IC50 [11]: 2.08 µM (active)
EC50 [12]: > 29.9 µM (inactive)

IC50 [13]: 36.7 µM (active)
SMILES: O=C(O)CCCN1C(=O)/C(=C\c2ccccc2OCc2ccccc2)SC1=S

SMILES: O=C(Cn1[nH]c(=O)c2ccccc2c1=O)N1CCN(S(=O)(=O)c2ccc(Cl)cc2)CC1
IC50 [14]: > 79 µM (inactive)

SMILES: COc1ccc2nc(O)c(CN(Cc3nnnn3Cc3ccccc3)CC3CCCO3)cc2c1 (stereo unspecified)
IC50 [14]: 16.5 µM (active)
AC50 [1]: 4.18 µM (active)
AC50 [2]: 5.31 µM (active)
AC50 [3]: 7.73 µM (active)
AC50 [4]: 33.1 µM (active)

IC50 [7]: 2.82 µM (not active)
SMILES: CN(C)c1ccc(C(CNC(=O)c2ccccc2Br)c2c[nH]c3ccccc23)cc1 (stereo unspecified)

SMILES: O=C(COC(=O)c1[nH]nc2ccccc12)NCCc1ccc(Cl)cc1
IC50 [11]: 2.87 µM (active)
EC50 [12]: > 29.9 µM (inactive)

SMILES: Cc1ccc2cc(C#N)c(N3CCN(C(=O)c4cccs4)CC3)nc2c1
IC50 [14]: > 79 µM (inactive)

AC50 [6]: > 20 µM (inactive)
SMILES: COC(=O)CCCCC1=CCC2C(=O)C=C(O)C2C1 (stereo unspecified)

SMILES: Oc1ccc2c(c1)nc(O)c1ccccc12
IC50 [14]: > 79 µM (inactive)

SMILES: C[C@H]1Cn2cnc(C(=O)N3CCN(c4ccccc4)CC3)c2C(=O)N1
AC50 [1]: 3.57 µM (active)
AC50 [2]: 6.04 µM (active)
AC50 [3]: 7.64 µM (active)
AC50 [4]: 13.4 µM (active)
